Measured values as given in patent US6335367B1 (priority 1999, dated 2002).

Experiments:
Format in all cases: in vivo
[1] = system: Plasiitopara viticola; test: Grape Downy Mildew (GDM) protective test on grape plants; details: 300 grams/hectare; protective spray; seven days after inoculation
Description: Numerous compounds of this invention were tested for fungicidal activity in vivo against the diseases described below. The compounds were dissolved a 1:1 mixture of acetone and methanol or N, N-dimethylformamide and diluted with a 2:1:1 mixture of water, acetone, and methanol (by volume) or water, respectively, to achieve the appropriate concentration. The solution was sprayed onto the plants, and allowed to dry (two hours). Then the plants were inoculated with fungal spores. Each test utilized control plants which were sprayed with the appropriate solvent mixture and inoculated. For these protective tests, the plants were inoculated one day after treating the plants with the fungicide compound. The remainder of the technique of each of the tests is given below along with the results for various compounds described herein by the Compound # against the various fungi at a dose of 300 grams per hectare. The results are percent disease control are compared to the untreated check wherein one hundred was rated as complete disease control and zero as no disease control.
Plasiitopara viticola was maintained on leaves of grape plants, cultivar. Delaware, in a controlled temperature chamber at 20° C. in humid air with moderate light intensity for 7 to 8 days. A water suspension of the spores from infested leaves was obtained and the spore concentration was adjusted to about 3×10^5 per ml of water. Delaware grape plants were inoculated by spraying the underside of leaves with a DeVilbiss atomizer until small drops were observed on the leaves. The inoculated plants were incubated in a mist chamber for 24 hours at 20° C. The plants were then removed to a controlled environmental room at 20° C. Disease control values were recorded as percent control seven days after inoculation.

[2] = system: Mexican bean beetle Epilachiba varivestis; test: Insecticidal leaf disk test, Mexican bean beetle (BB); details: 300 grams/hectare; sprayed leaf disk; visual inspection 24-48 hours after spraying
Description: (§1) Numerous compounds of this invention were tested for insecticidal activity in vivo against the insects described below. The following test method was used to evaluate compounds of the present invention for insecticidal activity. The compound to be evaluated was dissolved in an appropriate solvent, usually a mix of acetone, methanol and water, and sprayed over three excised leaf disks using a flat fan nozzle. After spraying, the leaf disks were allowed to dry. Two disks were infested with the leaf chewing insects (southern armyworm and Mexican bean beetle) and the third leaf disk was already infested with the two-spotted spider mite prior to spraying. The tested insect species were:
BB Mexican bean beetle Epilachiba varivestis
(§2) Observations as percent control were made by visual inspection 24-48 hours after spraying.

[3] = system: Pucciitia recoitdita (f. sp. tritici); details: 300 grams per hectare; protective spray, inoculated one day after treatment; evaluated after 12 days
[4] = system: two-spotted spider mite Teranychus uricate; test: Insecticidal leaf disk test, two-spotted spider mite (MTA); details: 300 grams/hectare; leaf disk infested prior to spraying; visual inspection 24-48 hours after spraying
Description: as §1
MTA two-spotted spider mite Teranychus uricate
as §2

| Structure (SMILES) | percent disease control, grape downy mildew [1] [%] | percent control, Mexican bean beetle [2] [%] | percent disease control, wheat leaf rust [3] [%] | percent control, two-spotted spider mite [4] [%] |
| --- | --- | --- | --- | --- |
| COC=C(C(=O)OC)c1ccccc1COc1cccc(C2CC2C(C)=NOC)c1 (single isomer, unassigned) [Compound 1.18A] | 100 | 100 | 100 | 100 |
| COC=C(C(=O)OC)c1ccccc1COc1cccc(C2CC2C(C)=NOC)c1 (single isomer, unassigned) [Compound 1.18B] | 100 | 100 | 100 | 100 |
| CCON=C(C1CC1)C1CC1c1cccc(OCc2ccccc2C(=COC)C(=O)OC)c1 (single isomer, unassigned) [Compound 1.108A] | 100 | 100 | 100 | 100 |
| CCON=C(C1CC1)C1CC1c1cccc(OCc2ccccc2C(=COC)C(=O)OC)c1 (single isomer, unassigned) [Compound 1.108B] | 100 | – | 100 | – |
| CNC(=O)C(=NOC)c1ccccc1COc1cccc(C2CC2C(C)=NOC)c1 (single isomer, unassigned) [Compound 3.18A] | – | – | 100 | – |
| CNC(=O)C(=NOC)c1ccccc1COc1cccc(C2CC2C(C)=NOC)c1 (single isomer, unassigned) [Compound 3.18B] | 100 | – | 100 | – |
| COC=C(C(=O)OC)c1ccccc1COc1cccc(C2CC2C(=NOC)c2ccc(Cl)cc2)c1 (stereo not shown) [Compound 1.04] | – | – | 100 | 100 |
| CCCCCCC(=NOC)C1CC1c1cccc(OCc2ccccc2/C(=C\OC)C(=O)OC)c1 (stereo not drawn) [Compound 1.23, Methyl (E)-3-methoxy-2-trans-[2-(3-(2-(methoximinohept-1-yl)cyclopropyl)-phenoxymethyl)phenyl]-2-propenoate] | 100 | 100 | – | 100 |
| COC=C(C(=O)OC)c1ccccc1COc1cccc(C2CC2C(CC(C)C)=NOC)c1 (stereo not shown) [Compound 1.24] | 100 | 100 | – | 100 |
| COC=C(C(=O)OC)c1ccccc1COc1cccc(C2CC2C(=NOC)C2CC=C(C)CC2)c1 (stereo not shown) [Compound 1.33] | – | 100 | – | 100 |
| CO/C=C(/C(=O)OC)c1ccccc1COc1cccc(C2CC2C(=NOC)C2CC2)c1 (stereo not drawn) [Compound 1.34, Methyl (E)-3-methoxy-2-trans-[2-(3-(2-(methoximinocycloprop-1-yl)cyclopropyl)phenoxymethyl)phenyl]-2-propenoate] | 100 | 100 | 100 | 100 |
| COC=C(C(=O)OC)c1ccccc1COc1cccc(C2CC2C(=NOC(C)(C)C)C2CC2)c1 (stereo not shown) [Compound 1.110] | – | 100 | – | 100 |
| COC=C(C(=O)OC)c1ccccc1COc1cccc(C2CC2C(=NOCc2ccccc2)C2CC2)c1 (stereo not shown) [Compound 1.115] | 100 | 100 | – | 100 |
| CNC(=O)C(=NOC)c1ccccc1COc1cccc(C2CC2C(=NOC)C2CC2)c1 (stereo not shown) [Compound 3.34] | 100 | – | 100 | – |
| CCC(C)C(NNc1ccccc1)=C1CC1c1cccc(OCc2ccccc2/C(=C\OC)C(=O)OC)c1 (stereo not drawn) [Compound 4.17, Methyl (E)-3-methoxy-2-trans-[2-(3-(2-(2-ethyl-1-(2-phenylhydrazino)propylidene)cyclopropyl)phenoxymethyl)phenyl]-2-propenoate] | – | – | 100 | – |
| COC=C(C(=O)OC)c1ccccc1COc1cccc(C2CC2C(=NNC(=O)c2ccccc2)C2CC2)c1 (stereo not drawn) [Compound 4.98, Methyl (E)-3-methoxy-2-trans-[2-(3-(2-(1-(N-benzoylhydrazinomethylidine)cycloprop-1-yl)cyclopropyl)phenoxymethyl)phenyl]-2-propenoate] | – | – | 100 | – |
